US20210382058A1, “PATIENT SELECTION FOR TREATMENT OF MYC POSITIVE CANCERS WITH INDENOISOQUINOLINES” (Purdue Research Foundation, priority 2020, published 2021)
Read-outs that look alike come from different tables or passages of the source.

Key:
[1] = system: MYC protein expression in MCF-7 breast cancer cells; assay: Western blotting of MYC protein level in MCF-7 cells; format: cell-based, human; settings: Homo sapiens, MCF7; western blotting, MCF-7 cells, 0.5, 1, 2, and 4 μM, 24 hours; read-out: MYC Inhibition
Procedure, shortened: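 MCF-7 cells were exposed to compounds at 0.5, 1, 2 and 4 μM for 24 hours at 37° C. MYC was detected by immunoblot with ECL, using rabbit anti-MYC (1:1000) and anti-GAPDH (1:2000) as loading control.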

NCI-60 cancer cell lines = assay: NCI-60 cancer cell line drug screen (GI50, MGM); format: cell-based, human; settings: Homo sapiens; for GI50: read-out: Antiproliferative Activities [GI50 (μM)]
Protocol: Cancer cells were incubated with the test compounds at five concentrations ranging from 100 μM to 10 nM for 48 h. […] The approximate average of GI50 values across the entire panel of NCI-60 cancer cell lines for each compound was recorded as the MGM value.

human topoisomerase I = biological target: T1, human topoisomerase I (Homo sapiens, UniProt P11387); settings: relative topoisomerase I inhibition levels, previously determined, six levels (0 - 5, +++++ = 5); cited from earlier work
T1 sequence (P11387 1-765): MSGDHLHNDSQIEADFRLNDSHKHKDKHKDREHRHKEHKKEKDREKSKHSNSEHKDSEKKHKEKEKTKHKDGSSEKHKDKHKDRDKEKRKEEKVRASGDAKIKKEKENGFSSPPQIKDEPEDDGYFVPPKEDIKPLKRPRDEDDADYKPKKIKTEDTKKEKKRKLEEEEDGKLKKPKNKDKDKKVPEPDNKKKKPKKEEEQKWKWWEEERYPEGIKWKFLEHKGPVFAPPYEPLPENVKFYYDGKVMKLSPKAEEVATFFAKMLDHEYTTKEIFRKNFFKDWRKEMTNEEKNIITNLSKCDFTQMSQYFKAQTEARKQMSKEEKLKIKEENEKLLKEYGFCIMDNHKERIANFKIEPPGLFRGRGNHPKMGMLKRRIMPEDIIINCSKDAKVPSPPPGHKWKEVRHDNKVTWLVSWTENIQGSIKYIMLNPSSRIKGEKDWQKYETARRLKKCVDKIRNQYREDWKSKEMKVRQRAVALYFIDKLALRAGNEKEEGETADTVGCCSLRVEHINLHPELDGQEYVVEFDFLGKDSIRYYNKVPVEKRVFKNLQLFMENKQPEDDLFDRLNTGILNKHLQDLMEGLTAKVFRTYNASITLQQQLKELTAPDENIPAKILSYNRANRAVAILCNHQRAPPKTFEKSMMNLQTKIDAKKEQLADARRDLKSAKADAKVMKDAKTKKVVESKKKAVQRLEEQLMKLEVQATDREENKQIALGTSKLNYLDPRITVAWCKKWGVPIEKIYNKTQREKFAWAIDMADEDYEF

Q: For CN(C)CCCn1c2c(c3cccnc3c1=O)C(=O)c1ccccc1-2 [Compound 20], which minimal effective concentration [1] is on record?
A: 4 µM

Q: And the GI50 (NCI-60 cancer cell lines; 786-0, Renal Cancer, 786-0)?
A: 1.16 µM

Q: And the GI50 (NCI-60 cancer cell lines; A549, Non-Small Cell Lung Cancer, A549/ATCC)?
A: 0.59 µM

Q: And the GI50 (NCI-60 cancer cell lines; ACHN, Renal Cancer, ACHN)?
A: 0.29 µM

Q: What about the GI50 (NCI-60 cancer cell lines; BT-549, Breast Cancer, BT-549) of the same compound?
A: 1.67 µM

Q: What about the GI50 (NCI-60 cancer cell lines; CAKI-1, Renal Cancer, CAKI-1) of the same compound?
A: 0.57 µM

Q: What about the GI50 (NCI-60 cancer cell lines; CCRF-CEM, Leukemia, CCRF-CEM) of the same compound?
A: 1.37 µM

Q: What about the GI50 (NCI-60 cancer cell lines; COLO 205, Colon Cancer, COLO 205) of the same compound?
A: 0.47 µM

Q: And the GI50 (NCI-60 cancer cell lines; DU-145, Prostate Cancer, DU-145)?
A: 1.89 µM

Q: What about the GI50 (NCI-60 cancer cell lines; HCC 2998, Colon Cancer, HCC-2998) of the same compound?
A: 2.17 µM

Q: What about the GI50 (NCI-60 cancer cell lines; HCT-15, Colon Cancer, HCT-15) of the same compound?
A: 1.03 µM

Q: What about the GI50 (NCI-60 cancer cell lines; HCT-116, Colon Cancer, HCT-116) of the same compound?
A: 0.44 µM

Q: And the GI50 (NCI-60 cancer cell lines; HL-60, Leukemia, HL-60(TB))?
A: 1.8 µM

Q: What about the GI50 (NCI-60 cancer cell lines; HOP-62, Non-Small Cell Lung Cancer, HOP-62) of the same compound?
A: 1.25 µM

Q: What about the GI50 (NCI-60 cancer cell lines; HOP-92, Non-Small Cell Lung Cancer, HOP-92) of the same compound?
A: 1.42 µM

Q: What about the GI50 (NCI-60 cancer cell lines; HT-29, Colon Cancer, HT29) of the same compound?
A: 1.01 µM

Q: And the GI50 (NCI-60 cancer cell lines; Hs-578T, Breast Cancer, HS 578T)?
A: 3.08 µM

Q: And the GI50 (NCI-60 cancer cell lines; IGROV-1, Ovarian Cancer, IGROV1)?
A: 1.91 µM

Q: What about the GI50 (NCI-60 cancer cell lines; K562, Leukemia, K-562) of the same compound?
A: 1.42 µM

Q: What about the GI50 (NCI-60 cancer cell lines; KM12, Colon Cancer, KM12) of the same compound?
A: 1.61 µM

Q: What about the GI50 (NCI-60 cancer cell lines; LOX IMVI, Melanoma, LOX IMVI) of the same compound?
A: 0.81 µM

Q: What about the GI50 (NCI-60 cancer cell lines; Leukemia, SR) of the same compound?
A: 0.31 µM

Q: And the GI50 (NCI-60 cancer cell lines; MCF7, Breast Cancer, MCF7)?
A: 0.37 µM

Q: What about the GI50 (NCI-60 cancer cell lines; MDA-MB-231, Breast Cancer, MDA-MB-231/ATCC) of the same compound?
A: 2.58 µM

Q: And the GI50 (NCI-60 cancer cell lines; MDA-MB-435, Melanoma, MDA-MB-435)?
A: 1.93 µM

Q: What about the GI50 (NCI-60 cancer cell lines; MDA-MB-468, Breast Cancer, MDA-MB-468) of the same compound?
A: 1.57 µM

Q: And the GI50 (NCI-60 cancer cell lines; MOLT-4, Leukemia, MOLT-4)?
A: 0.29 µM

Q: What about the GI50 (NCI-60 cancer cell lines; Melanoma, M14) of the same compound?
A: 1.57 µM

Q: And the GI50 (NCI-60 cancer cell lines; NCI-H23, Non-Small Cell Lung Cancer, NCI-H23)?
A: 1.86 µM

Q: And the GI50 (NCI-60 cancer cell lines; NCI-H226, Non-Small Cell Lung Cancer, NCI-H226)?
A: 1.32 µM

Q: What about the GI50 (NCI-60 cancer cell lines; NCI-H322M, Non-Small Cell Lung Cancer, NCI-H322M) of the same compound?
A: 2.47 µM

Q: What about the GI50 (NCI-60 cancer cell lines; NCI-H460, Non-Small Cell Lung Cancer, NCI-H460) of the same compound?
A: 0.41 µM

Q: What about the GI50 (NCI-60 cancer cell lines; NCI-H522, Non-Small Cell Lung Cancer, NCI-H522) of the same compound?
A: 1.84 µM

Q: What about the GI50 (NCI-60 cancer cell lines; OVCAR-3, Ovarian Cancer, OVCAR-3) of the same compound?
A: 2.41 µM

Q: What about the GI50 (NCI-60 cancer cell lines; OVCAR-4, Ovarian Cancer, OVCAR-4) of the same compound?
A: 1.93 µM

Q: What about the GI50 (NCI-60 cancer cell lines; OVCAR-5, Ovarian Cancer, OVCAR-5) of the same compound?
A: 2.44 µM

Q: And the GI50 (NCI-60 cancer cell lines; OVCAR-8, Ovarian Cancer, OVCAR-8)?
A: 0.95 µM

Q: What about the GI50 (NCI-60 cancer cell lines; Ovarian Cancer, NCl/ADR-RES) of the same compound?
A: 2.72 µM

Q: And the GI50 (NCI-60 cancer cell lines; Prostate Cancer, PC-3)?
A: 2.05 µM

Q: What about the GI50 (NCI-60 cancer cell lines; RPMI-8226, Leukemia, RPMI-8226) of the same compound?
A: 1.84 µM

Q: What about the GI50 (NCI-60 cancer cell lines; RXF 393, Renal Cancer, RXF 393) of the same compound?
A: 2.31 µM

Q: What about the GI50 (NCI-60 cancer cell lines; Renal Cancer, U0-31) of the same compound?
A: 0.57 µM

Q: What about the GI50 (NCI-60 cancer cell lines; SF-268, CNS Cancer, SF-268) of the same compound?
A: 2.15 µM

Q: And the GI50 (NCI-60 cancer cell lines; SF-295, CNS Cancer, SF-295)?
A: 0.75 µM

Q: And the GI50 (NCI-60 cancer cell lines; SF-539, CNS Cancer, SF-539)?
A: 0.85 µM

Q: What about the GI50 (NCI-60 cancer cell lines; SK-MEL-2, Melanoma, SK-MEL-2) of the same compound?
A: 3.92 µM

Q: And the GI50 (NCI-60 cancer cell lines; SK-MEL-5, Melanoma, SK-MEL-5)?
A: 1 µM

Q: What about the GI50 (NCI-60 cancer cell lines; SK-MEL-28, Melanoma, SK-MEL-28) of the same compound?
A: 1.56 µM

Q: What about the GI50 (NCI-60 cancer cell lines; SK-OV-3, Ovarian Cancer, SK-OV-3) of the same compound?
A: 2.22 µM

Q: And the GI50 (NCI-60 cancer cell lines; SN12C, Renal Cancer, SN12C)?
A: 1.12 µM

Q: And the GI50 (NCI-60 cancer cell lines; SNB-19, CNS Cancer, SNB-19)?
A: 1.75 µM

Q: And the GI50 (NCI-60 cancer cell lines; SNB-75, CNS Cancer, SNB-75)?
A: 0.66 µM

Q: What about the GI50 (NCI-60 cancer cell lines; SW-620, Colon Cancer, SW-620) of the same compound?
A: 0.46 µM

Q: And the GI50 (NCI-60 cancer cell lines; T47D, Breast Cancer, T-47D)?
A: 2.04 µM

Q: What about the GI50 (NCI-60 cancer cell lines; TK-10, Renal Cancer, TK-10) of the same compound?
A: 3.02 µM

Q: And the GI50 (NCI-60 cancer cell lines; U-251, CNS Cancer, U251)?
A: 1.05 µM

Q: What about the GI50 (NCI-60 cancer cell lines; UACC-62, Melanoma, UACC-62) of the same compound?
A: 1.3 µM

Q: And the GI50 (NCI-60 cancer cell lines; UACC-257, Melanoma, UACC-257)?
A: 2.02 µM

Q: And the mean GI50 across NCI-60 panel (MGM) (NCI-60 cancer cell lines; average of GI50 values across the entire panel of NCI-60 cancer cell lines)?
A: 1260 nM

Q: And the “Top1 Inhibiton” value (human topoisomerase I)?
A: +++ (strong inhibition, +++, MYC expression inhibited at 0.5 to 1.0 μM)
